Common to all, as to assay: DTP human tumour cell line panel, 48 h
For experiment [1], the system named is LOX IMVI melanoma.
Experiment [2] concerns U251 CNS.
Experiment [3] has as its system KM12 colon.
Experiment [4] concerns COLO 205 colon.
Experiment [5] concerns CCRF-CEM leukemia.
The test system of experiment [6] is OVCAR-4 ovarian.
Experiment [7] deals with SN12C renal.
Experiment [8] concerns UO-31 renal.

“And” between values parts separate entries of the source, which are not always exact repeats. Equal values may be shown once.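 Five concentrations, 48 hours, 96-well plates. Abbreviation: GI50, concentration required for 50% inhibition of growth. At the TGI there is no net growth.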

What is called TGI is the concentration at which net growth stops. On to `CN1c2ccccc2S(=O)(=O)n2c(CCc3ccccc3)nnc21`, for which the TGI in experiment [1], in experiment [2], in experiment [3], in experiment [4], in experiment [5] and in experiment [6] was > 100 µM each time. Besides, the TGI in experiment [7] and in experiment [8] was > 100 µM in each case.

By GI50 is commonly meant the concentration giving 50% growth inhibition. Regarding `CCCCN(CC)c1ncnc2ccc(Br)cc12`, the GI50 in experiment [1] is 17.9 µM; in experiment [2], 18.2 µM; in experiment [3], 15.3 µM; in experiment [4] it was 20.4 µM; in experiment [5] it was 19 µM; in experiment [6] it was 22.1 µM. Further, the GI50 is 18.8 µM in experiment [7] and 19.9 µM in experiment [8]. The concentration for total growth inhibition (TGI) in experiment [1] was 38.7 µM; in experiment [2], 44.9 µM; in experiment [3], 31.6 µM; in experiment [4], 63.7 µM; in experiment [5], 63.8 µM; in experiment [6], > 100 µM. In addition, the TGI in experiment [7] amounted to 40.9 µM; in experiment [8] it was 98.7 µM.

On to `COc1nc(C)cc2c(=O)n(-c3ccccc3)n(CC(O)CN3CCN(c4ccc(Cl)cc4)CC3)c(=O)c12` (centres undefined), for which the GI50 in experiment [1] was > 50 µM; in experiment [2], 30.6 µM; in experiment [3], > 50 µM; in experiment [4], > 50 µM; in experiment [5], > 50 µM; in experiment [6] it was 36.8 µM. Besides, the GI50 is > 50 µM in experiment [7] and 46.6 µM in experiment [8]. The TGI in experiment [1], in experiment [2], in experiment [3], in experiment [4], in experiment [5] and in experiment [6] was > 50 µM in each case. The total growth inhibition concentration (TGI) in experiment [7] and in experiment [8] was > 50 µM throughout.

Regarding `Cc1cc(=O)oc2cc(OC(=O)N(CCCl)CCCl)ccc12`, the TGI in experiment [1], in experiment [2], in experiment [3], in experiment [4], in experiment [5] and in experiment [6] was > 100 µM in each case. The TGI in experiment [7] and in experiment [8] was > 100 µM each time.

Consider `COc1cc2ncnc3c2cc1OCCCCCN(C)Cc1ccc(Br)cc1N3`, for which the GI50 in experiment [1] is 2.93 µM and 2.12 µM; in experiment [2], 34.3 µM and 5.33 µM; in experiment [3] it was 13.2 µM and > 10 µM; in experiment [4], 5.68 µM and 4.67 µM; in experiment [5] it was 10.2 µM and > 10 µM; in experiment [6], 2.57 µM and 1.34 µM. The GI50 in experiment [7] was 5.45 µM and 1.32 µM; in experiment [8], 0.285 µM and 0.267 µM. Moreover, the TGI in experiment [1] was > 100 µM; in experiment [2] it was > 100 µM; in experiment [3] it was > 100 µM; in experiment [4] it was > 100 µM; in experiment [5], > 100 µM; in experiment [6], 43.1 µM and > 10 µM. In addition, the concentration for total growth inhibition (TGI) in experiment [7] and in experiment [8] was > 100 µM in each case.

In the case of `Oc1c(CN2CCCC2)cc(CSCc2ccccc2)c2cccnc12`, the GI50 in experiment [1] was 0.386 µM; in experiment [2], 0.789 µM; in experiment [3], 0.635 µM; in experiment [4], 4.82 µM; in experiment [5], 0.429 µM; in experiment [6], 0.456 µM. Further, the GI50 is 1.69 µM in experiment [7] and 0.103 µM in experiment [8]. For the same compound, the TGI in experiment [1] turned out to be 2.48 µM; in experiment [2], 11.9 µM; in experiment [3], 11.9 µM; in experiment [4], 18.7 µM; in experiment [5], 10.2 µM; in experiment [6], 2.47 µM. In addition, the TGI was 13.5 µM in experiment [7] and 1.38 µM in experiment [8].

Regarding `COc1ccc(NC(=O)n2nc(/C=C\c3ccc(O)c(OC)c3)cc2/C=C\c2ccc(O)c(OC)c2)cc1`, the GI50 in experiment [1] was 3.95 µM; in experiment [2] it was 3.55 µM; in experiment [3], 3.19 µM; in experiment [4] it was 16.2 µM; in experiment [5] it was 2.34 µM; in experiment [6], 5.72 µM. Also, the GI50 was 3.05 µM in experiment [7] and 1.52 µM in experiment [8]. In addition, the total growth inhibition concentration (TGI) was > 100 µM in experiment [1]; 20.9 µM in experiment [2]; 20.7 µM in experiment [3]; 44.3 µM in experiment [4]; 32.7 µM in experiment [5]; 90.7 µM in experiment [6]. Besides, the TGI in experiment [7] stood at 33.7 µM; in experiment [8], 36.4 µM.

Take `CCOC(=O)c1c2c(n(Cc3ccccc3)c1C)-c1nc(Cc3ccccc3)[nH]c1C(=O)C2=O`: the GI50 in experiment [1] was 1.78 µM; in experiment [2] it was 1.77 µM; in experiment [3], 1.83 µM; in experiment [4], 1.83 µM; in experiment [5] it was 0.962 µM; in experiment [6], 1.03 µM. For the same compound, the GI50 is 1.58 µM in experiment [7] and 1.32 µM in experiment [8]. In addition, the concentration for total growth inhibition (TGI) in experiment [1] came to 3.17 µM; in experiment [2], 3.15 µM; in experiment [3], 3.83 µM; in experiment [4] it was 3.33 µM; in experiment [5], 2.97 µM; in experiment [6], 2.76 µM. Moreover, the results for the total growth inhibition concentration (TGI) in experiment [7] and in experiment [8] were 3.21 µM and 2.64 µM, respectively.

As to `Nc1nc(N)nc(CC(=O)O)n1`, the TGI in experiment [1], in experiment [2], in experiment [3], in experiment [4], in experiment [5] and in experiment [6] was > 100 µM throughout. Also, the total growth inhibition concentration (TGI) in experiment [7] and in experiment [8] was > 100 µM each time.

`[N-]=[N+]=CC(=O)COC(=O)c1ccccc1`: the concentration for total growth inhibition (TGI) in experiment [1], in experiment [2], in experiment [3], in experiment [4], in experiment [5] and in experiment [6] was > 100 µM each time. Besides, the total growth inhibition concentration (TGI) in experiment [7] and in experiment [8] was > 100 µM throughout.

On to `Oc1c(Cl)cc(Cl)cc1Sc1cc(Cl)cc(Cl)c1O`, for which the GI50 in experiment [1] was 2.93 µM and 3 µM; in experiment [2], 3.01 µM and 2.74 µM; in experiment [3] it was 3.54 µM and 2.93 µM; in experiment [4], 2.22 µM and 1.67 µM; in experiment [5] it was 4.32 µM and 2.83 µM; in experiment [6], 3.97 µM and 3.2 µM. Besides, the GI50 in experiment [7] is 3.13 µM and 3.14 µM; in experiment [8], 2.46 µM and 2.02 µM. The TGI in experiment [1] is 11.2 µM and 10.8 µM; in experiment [2], 11.2 µM and 10.5 µM; in experiment [3], 10.7 µM and 10.5 µM; in experiment [4] it was 5.23 µM and 3.03 µM; in experiment [5], 23.4 µM and 25 µM; in experiment [6], 14.3 µM and 11.7 µM. Moreover, the TGI was 13 µM and 11.4 µM in experiment [7]; 11.6 µM and 9.32 µM in experiment [8].

Source of the values: PubChem BioAssay (NCI).
